Results published in patent US7524495B2, “Inhibition of TACE or amphiregulin for the modulation of EGF receptor signal transactivation” (Max-Planck-Gesellschaft zur Foerderung der Wissenschaften …, priority 2003, dated 2009).

Tests used:
proAR = test: Flow cytometric analysis of cell surface proAR (proAR shedding); format: cell-based, human; conditions: for cell surface content of endogenous proAR after agonist treatment: head and neck cancer cells, LPA 10 μM
Protocol: (§1) FIG. 1 GPCR stimulation of the EGFR Involves a ligand-dependent mechanism and is accompanied by AR release from the cell surface. a, EGFR signal transactivation requires metalloprotease activity and the EGFR extracellular domain. SCC-9 cells were pre-incubated with marimastat (BB2516, 10 μM; 20 min), anti-EGFR antibody ICR-3R (20 μg/mL; 60 min) or PTX (100 ng/mL; 18 h) and treated with LPA (10 μM), carbachol (Car, 1 mM), EGF (7.5 ng/mL) or pervanadate (PV, 1 mM) for 3 min. Following immunoprecipitation (IP) of cell extracts with anti-EGFR antibody proteins were immunoblotted (IB) with anti-phosphotyrosine antibody and re-probed with anti-EGFR antibody. b, Flow cytometric analysis of EGF-like precursor expression. SCC-9 cells were collected and stained for surface HB-EGF, TGFa or AR and analyzed by flow cytometry. Control cells were labelled with FITC-conjugated secondary antibody alone. c, LPA-induced proteolytic processing of proAR. SCC-9 cells were pre-incubated with batimastat (BB94, 10 μM) or PTX and stimulated with LPA or TPA (1 μM) for 5 min. Cells were collected and analyzed for cell surface AR density by flow cytometry. d, GPCR-induced proteolytic release of AR. SCC-9 cells were pre-incubated with batimastat or vehicle followed by stimulation with agonists as indicated for 120 min. Conditioned medium was collected and analyzed for total AR amount by ELISA. Each bar is the average of triplicate values (mean±s.d.). *, P<0.03 for the difference between agonists vs. BB94+agonists.
(§2) ACS analysis was performed as described before (1). Cells were stained with ectodomain-specific antibodies against HB-EGF, AR (R&D Systems) or TGFa (Oncogene, Boston; Mass.). After washing with PBS, cells were incubated with FITC-conjugated secondary antibody and analyzed on a Becton Dickinson FACScalibur flow cytometer.

proTGFα = test: Flow cytometric analysis of proTGFα ectodomain cleavage; format: cell-based, human; conditions: HNSCC cells; data not shown
Protocol: as §2

proHB-EGF = test: Flow cytometric analysis of proHB-EGF ectodomain cleavage; format: cell-based, human; conditions: HNSCC cells; data not shown
Protocol: as §2

amphiregulin (AR) = test: AR release into cell culture medium (sandwich ELISA); format: cell-based, human; conditions: SCC-9 cells; compared to LPA stimulation
Protocol: as §1, with “SCC-9 cells were pre-incubated with batimastat (BB94, 10 μM) or PTX and stimulated with LPA or TPA (1 μM) for 5 min.” left out, “SCC-9 cells were pre-incubated with batimastat or vehicle followed by stimulation with agonists as indicated for 120 min.” left out, “Each bar is the average of triplicate values (mean±s.d.). *, P<0.03 for the difference between agonists vs. BB94+agonists.” left out
Concentrations of free AR were determined by sandwich ELISA (R&D Systems) using monoclonal anti-AR capture antibody and biotinylated polyclonal detection antibody. […] Values are expressed as mean±s.d. of at least triplicate samples. […]

EGFR = EGFR tyrosine phosphorylation / EGFR signal transactivation (IP with anti-EGFR, anti-phosphotyrosine immunoblot); format: cell-based, human; conditions: for GPCR-induced EGFR tyrosine phosphorylation (EGFR transactivation signal): SCC-9 cells, stimulation with LPA or carbachol
Protocol: as §1
FIG. 2 GPCR stimulation requires AR to trigger EGFR-dependent signals and biological responses. a, Blockade of EGF-like growth factor precursor expression by RNA interference (RNAi). SCC-9 cells were transfected with siRNA for proAR, proHB-EGF or proTGFα cultured for 2 days and analyzed for gene expression by RT-PCR as indicated or b, stimulated with LPA or carbachol and assayed for EGFR tyrosine phosphorylation content. c, Requirement of AR for LPA-induced cell migration. SIRNA-transfected SCC-9 cells were analyzed for transwell migration toward fibronectin as chemoattractant. Each bar is the average of quadruplicate values (mean±s.d.). *, P<0.001 for control siRNA+LPA vs. proAR siRNA+LPA. d, Effect of anti-AR neutralizing antibody and heparin on GPCR-induced EGFR and SHC tyrosine phosphorylation. […] Phosphorylated ERK1/2 was detected by immunoblotting total lysates with anti-phospho-ERK antibody. […] Quantitative analysis of ERK phosphorylation from three independent experiments (mean±s.d.). *, P<0.05 for the difference between LPA vs. inhibitors+LPA. […] Cells were then pulse-labelled with ^3H-thymidine and thymidine incorporation was measured by liquid-scintillation counting. Quantitative analysis from three independent experiments (mean±s.d.). *, P<0.001 for LPA vs. inhibitors+LPA. […]

SCC-15 cells = test: 3H-thymidine incorporation assay (DNA synthesis); format: cell-based, human; conditions: 18 h
Source text: (§3) FIG. 2 GPCR stimulation requires AR to trigger EGFR-dependent signals and biological responses. a, Blockade of EGF-like growth factor precursor expression by RNA interference (RNAi). SCC-9 cells were transfected with siRNA for proAR, proHB-EGF or proTGFα cultured for 2 days and analyzed for gene expression by RT-PCR as indicated or b, stimulated with LPA or carbachol and assayed for EGFR tyrosine phosphorylation content. c, Requirement of AR for LPA-induced cell migration. SIRNA-transfected SCC-9 cells were analyzed for transwell migration toward fibronectin as chemoattractant. […] Phosphorylated ERK1/2 was detected by immunoblotting total lysates with anti-phospho-ERK antibody. […] Quantitative analysis of ERK phosphorylation from three independent experiments (mean±s.d.). *, P<0.05 for the difference between LPA vs. inhibitors+LPA. […] Cells were then pulse-labelled with ^3H-thymidine and thymidine incorporation was measured by liquid-scintillation counting. Quantitative analysis from three independent experiments (mean±s.d.). *, P<0.001 for LPA vs. inhibitors+LPA.
For the ^3H-thymidine incorporation assay (5), SCC-15 cells were seeded into 12-well plates at 3×10^4 cells/well. […] After 18 h cells were pulse-labelled with ^3H-thymidine (1 μCi/ml) for 4 h, and thymidine incorporation was measured by trichloroacetic acid precipitation and subsequent liquid-scintillation counting.

TACE = TACE (Homo sapiens, UniProt P78536); conditions: reference (25); cited from earlier work
ERK1/2 = test: ERK/MAPK activation (anti-phospho-ERK immunoblot); format: cell-based, human; conditions: SCC-9 and SCC-15 cells
Source text: as §3
Cells were lysed and proteins immunoprecipitated as described (13). […] Phosphotyrosine was detected with the 4G10 monoclonal antibody (UBI, Lake Placid, N.Y.). […]

Akt/PKB = Akt/PKB phosphorylation (anti-phospho-Akt immunoblot); format: cell-based, human; conditions: head and neck cancer cells

TACE, sequence (P78536 215-824): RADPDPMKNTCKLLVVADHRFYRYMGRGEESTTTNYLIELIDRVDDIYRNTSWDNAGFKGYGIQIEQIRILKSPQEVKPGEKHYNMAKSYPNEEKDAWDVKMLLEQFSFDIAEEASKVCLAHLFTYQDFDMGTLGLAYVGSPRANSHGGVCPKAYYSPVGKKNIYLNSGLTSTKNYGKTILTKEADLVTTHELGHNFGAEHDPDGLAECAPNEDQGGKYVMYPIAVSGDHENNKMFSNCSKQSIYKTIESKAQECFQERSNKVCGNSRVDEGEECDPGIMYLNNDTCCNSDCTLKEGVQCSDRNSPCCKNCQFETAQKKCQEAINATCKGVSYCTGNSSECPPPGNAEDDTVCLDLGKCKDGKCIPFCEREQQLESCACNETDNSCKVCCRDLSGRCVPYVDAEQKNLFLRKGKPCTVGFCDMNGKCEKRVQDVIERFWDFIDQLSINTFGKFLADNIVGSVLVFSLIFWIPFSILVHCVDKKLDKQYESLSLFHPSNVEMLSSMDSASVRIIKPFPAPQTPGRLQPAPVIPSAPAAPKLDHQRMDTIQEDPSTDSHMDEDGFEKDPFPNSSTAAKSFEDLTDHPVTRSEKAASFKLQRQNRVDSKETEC

CCCCCCCCCCCCCC(=O)O[C@@H]1[C@@H](C)[C@@]2(O)[C@@H](C=C(CO)C[C@]3(O)C(=O)C(C)=C[C@@H]23)[C@@H]2C(C)(C)[C@]12OC(C)=O [TPA]
cell surface content of endogenous proAR after agonist treatment (proAR; TPA 1 µM as printed): reduced | proteolytic (ectodomain) cleavage of proTGFα by agonist (proTGFα): resulted in ectodomain cleavage | proteolytic (ectodomain) cleavage of proHB-EGF by agonist (proHB-EGF): resulted in ectodomain cleavage

C[N+](C)(C)CCOC(N)=O [carbachol]
AR release in response to agonist (amphiregulin (AR)): substantially lower compared to LPA stimulation

CNC(=O)[C@@H](NC(=O)[C@H](CC(C)C)[C@H](O)C(=O)NO)C(C)(C)C [marimastat]
GPCR-induced EGFR tyrosine phosphorylation (EGFR transactivation signal) (EGFR): sensitive

COc1cc2ncnc(Nc3cccc(Cl)c3)c2cc1OC [tyrphostin AG1478]
DNA synthesis triggered by LPA (SCC-15 cells): decreased DNA synthesis by LPA to below basal level

Timp-1: human Timp-1; ectopic expression by retroviral transduction
GPCR-induced EGFR tyrosine phosphorylation (EGFR transactivation signal) (EGFR): not | proteolytic activity of TACE in vitro (TACE): not

heparin
LPA-induced EGFR tyrosine phosphorylation (EGFR signal transactivation) (EGFR; LPA 10 μM, 3 min, SCC-9 (anti-AR also SCC-4, SCC-15, SCC-25)): completely blocked | LPA-induced ERK activation (ERK1/2): prevented

lysophosphatidic acid [LPA]
cell surface content of endogenous proAR after agonist treatment (proAR; TPA 1 µM): reduced | proteolytic (ectodomain) cleavage of proTGFα by agonist (proTGFα): not able to induce | proteolytic (ectodomain) cleavage of proHB-EGF by agonist (proHB-EGF): not able to induce | phosphorylation of Akt/PKB at Ser-473 by agonist (Akt/PKB): markedly increased

pertussis toxin [PTX]
LPA-induced ectodomain cleavage (shedding) of proAR (proAR; SCC-9 cells, batimastat 10 μM, PTX 100 ng/mL): partially inhibited

B1: Timp-3: tissue inhibitor of metalloprotease-3; ectopic expression by retroviral transduction (protein)
chain: CTCSPSHPQDAFCNSDIVIRAKVVGKKLVKEGPFGTLVYTIKQMKMYRGFTKMPHVQYIHTEASESLCGLKLEVNKYQYLLTGRVYDGKMYTGLCNFVERWDQLTLSQRKGLNYRYHLGCNCKIKSCYYLPCFVTSKNECLWTDMLSNFGYPGYQSKHYACIRQKGGYCSWYRGWAPPDKSIINATDP
modifications: left off: small tags and cut ends
notes: ectopic expression by retroviral transduction
GPCR-induced EGFR tyrosine phosphorylation (EGFR transactivation signal) (EGFR): inhibited | proteolytic activity of TACE in vitro (TACE): inhibited
